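Briefly, cells in 96-well plates were exposed to five compound concentrations for 48 h, and endpoints were estimated by linear interpolation. GI50 is the concentration that inhibits growth by half. TGI denotes the concentration required for complete inhibition of growth.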
Experiments:
Assay in all cases: growth of human tumour cells (NCI), 48 h
[1] = test system: A549 NSCLC
[2] = test system: HCT-15 colon
[3] = test system: HT29 colon
[4] = test system: KM12 colon
[5] = test system: NCI/ADR-RES ovarian
[6] = test system: OVCAR-5 ovarian
[7] = test system: SF-268 CNS
[8] = test system: T-47D breast
[9] = test system: RXF 393 renal
[10] = test system: DU-145 prostate

For COc1cc(-n2cc(-c3ccccc3)[nH]c2=O)cc(OC)c1OC, the GI50 [1] was 38.9 µM, the TGI [1] was > 100 µM and the GI50 [2] was 85.2 µM. For the same compound, the TGI [2] was > 100 µM, the GI50 [3] was > 100 µM and the TGI [3] was > 100 µM. The GI50 [4] was > 100 µM, the TGI [4] was > 100 µM and the GI50 [5] was 33 µM. For the same compound, the TGI [5] was > 100 µM, the GI50 [6] was > 100 µM and the TGI [6] was > 100 µM. For the same compound, the GI50 [7] was 28.5 µM, the TGI [7] was 89.7 µM and the GI50 [8] was 30.5 µM. The TGI [8] was > 100 µM.

For Cn1c(=O)nc2n(-c3ccc(Cl)cc3)c(-c3ccccc3)c(-c3ccccc3)nc-2c1=O, the TGI [1] was > 100 µM, the TGI [2] was > 100 µM and the TGI [3] was > 100 µM. For the same compound, the TGI [4] was > 100 µM, the TGI [6] was > 100 µM and the TGI [7] was > 100 µM.

For O=c1c2ccccc2[nH]c2c(O)ccc(O)c12, the TGI [1] was > 100 µM, the TGI [2] was 37.2 µM and the TGI [3] was > 84.9 µM. For the same compound, the TGI [4] was > 100 µM, the TGI [6] was > 100 µM and the TGI [9] was 25.8 µM. For the same compound, the TGI [7] was 76.5 µM.

In the case of O=C1/C(=C/c2ccc3c(c2)OCCO3)CCC/C1=C\c1ccc2c(c1)OCCO2, the TGI [1] was > 100 µM, the TGI [2] was > 100 µM and the TGI [3] was 52 µM. For the same compound, the TGI [4] was 62.1 µM, the TGI [6] was > 100 µM and the TGI [9] was 53.5 µM. The TGI [7] was > 100 µM.

For CN(C)CCC(/C=C/c1ccccc1)=N\Nc1ccc(Cl)c(Cl)c1, the TGI [1] was 10.6 µM, the TGI [2] was 12.9 µM and the TGI [3] was 5.01 µM. For the same compound, the TGI [4] was 4.41 µM, the TGI [6] was 15.6 µM and the TGI [9] was 9.05 µM. It also gave a TGI [7] of 8.81 µM.

N#CC1=C(N)NC(=S)NC1c1ccc(-c2ccc(-c3nc4ccccc4o3)cc2)s1 (stereo not given) was tested, and the GI50 [1] was 9 µM, the TGI [1] was 20.2 µM and the GI50 [10] was 17.6 µM. For the same compound, the TGI [10] was > 50 µM, the GI50 [2] was 12.3 µM and the TGI [2] was > 50 µM. For the same compound, the GI50 [4] was 15.1 µM, the TGI [4] was > 50 µM and the GI50 [5] was 12.1 µM. It also gave a TGI [5] of 30.1 µM, a GI50 [6] of 16 µM and a TGI [6] of 34.6 µM. It also gave a GI50 [7] of 10.7 µM, a TGI [7] of 26.5 µM and a GI50 [8] of 15.4 µM. For the same compound, the TGI [8] was > 50 µM.

For Cc1ccccc1NC(=O)/C=N/O, the TGI [1] was > 100 µM, the TGI [2] was > 100 µM and the TGI [3] was > 100 µM. For the same compound, the TGI [4] was > 100 µM, the TGI [6] was > 100 µM and the TGI [9] was > 100 µM. For the same compound, the TGI [7] was > 100 µM.

With COC(=O)c1cccc2c3ccccc3c3ccccc3c12 the TGI [1] was > 100 µM, the TGI [2] was > 100 µM and the TGI [3] was 83 µM. For the same compound, the TGI [4] was > 100 µM, the TGI [6] was > 100 µM and the TGI [9] was 71.3 µM. For the same compound, the TGI [7] was > 100 µM.

With [N-]=[N+]=NCCCn1c2c(c3ccc([N+](=O)[O-])cc3c1=O)C(=O)c1cc3c(cc1-2)OCO3 the GI50 [1] was < 0.0388 µM, the TGI [1] was 2.87 µM and the GI50 [10] was 0.0342 µM. For the same compound, the TGI [10] was 0.271 µM, the GI50 [2] was 1.42 µM and the TGI [2] was > 100 µM. For the same compound, the TGI [3] was > 100 µM, the TGI [4] was 5.01 µM and the GI50 [5] was < 0.0114 µM. For the same compound, the TGI [5] was < 0.041 µM, the GI50 [6] was 0.215 µM and the TGI [6] was 2.1 µM. For the same compound, the GI50 [9] was 0.39 µM, the TGI [9] was 40.3 µM and the GI50 [8] was 0.656 µM. The TGI [8] was > 100 µM.

In the case of Cc1cccc(C)c1NC(=O)CCC/C(CC(=O)c1ccc(F)cc1)=N\NC(=O)C(=O)NN, the TGI [1] was > 100 µM, the TGI [2] was > 100 µM and the TGI [3] was > 100 µM. The TGI [4] was > 100 µM, the TGI [6] was > 100 µM and the TGI [9] was > 100 µM. For the same compound, the TGI [7] was > 100 µM.

In the case of CC1=C(C(=O)NCc2ccccc2)C(c2ccc(Cl)c(Cl)c2)C(C(=O)NCc2ccccc2)=C(C)N1, the TGI [1] was > 100 µM, the TGI [2] was > 100 µM and the TGI [3] was > 100 µM. For the same compound, the TGI [4] was > 100 µM, the TGI [6] was > 100 µM and the TGI [9] was > 100 µM. The TGI [7] was > 100 µM.

In the case of Cc1ccc(S(=O)(=O)NC(=O)NCCc2ccccc2)cc1, the TGI [1] was > 100 µM, the TGI [4] was > 100 µM and the TGI [6] was > 100 µM. For the same compound, the TGI [9] was > 100 µM and the TGI [7] was > 100 µM.

With CCCCCCCCOCC(O)CO (stereo not given) the TGI [1] was > 100 µM, the TGI [2] was > 100 µM and the TGI [3] was > 100 µM. The TGI [4] was > 100 µM, the TGI [6] was > 100 µM and the TGI [9] was > 100 µM. For the same compound, the TGI [7] was > 100 µM.

Compound CC[C@@]1(OC(=O)C(N)CCCCN)C(=O)OCc2c1cc1n(c2=O)Cc2cc3ccccc3nc2-1 (stereo not given in full) has a TGI [1] of 2.81 µM, a TGI [10] of 0.25 µM and a TGI [2] of 15.6 µM. For the same compound, the TGI [3] was 11.4 µM, the TGI [4] was 5.26 µM and the TGI [6] was 3.86 µM. For the same compound, the TGI [9] was 0.861 µM, the TGI [7] was 11.9 µM and the TGI [8] was 0.935 µM.

In the case of COc1ccc(/C(C)=N/NC(=O)CSc2nc3ccccc3c(=O)n2CCc2ccc(S(N)(=O)=O)cc2)cc1, the GI50 [1] was 2.1 µM, the TGI [1] was 4 µM and the GI50 [10] was 1.77 µM. The TGI [10] was 3.55 µM, the GI50 [2] was 4.7 µM and the TGI [2] was 63.7 µM. It also gave a GI50 [3] of 1.95 µM, a TGI [3] of 3.7 µM and a GI50 [4] of 2.06 µM. The TGI [4] was 3.96 µM, the GI50 [5] was 11.7 µM and the TGI [5] was > 100 µM. The GI50 [6] was 1.61 µM, the TGI [6] was 3.23 µM and the GI50 [9] was 1.72 µM. The TGI [9] was 3.29 µM.

In the case of Nc1ccc(-c2cc(C(=O)Nc3nccs3)[nH]c(=S)n2)cc1, the TGI [1] was > 100 µM, the TGI [2] was > 100 µM and the TGI [3] was > 100 µM. For the same compound, the TGI [4] was > 100 µM, the TGI [6] was > 100 µM and the TGI [9] was > 100 µM. For the same compound, the TGI [7] was > 100 µM.

With CCOC(=O)C(=O)Nc1cc(Cl)c(Cl)cc1Cl the TGI [2] was > 100 µM, the TGI [3] was > 100 µM and the TGI [4] was > 100 µM. The TGI [6] was > 100 µM, the TGI [9] was > 100 µM and the TGI [7] was > 100 µM.

In the case of O=C(O)[C@@H]1OCCOCCO[C@@H](C(=O)O)[C@H](C(=O)O)OCCOCCO[C@H]1C(=O)O, the TGI [1] was > 100 µM, the TGI [2] was > 100 µM and the TGI [3] was > 100 µM. The TGI [4] was > 100 µM, the TGI [6] was > 100 µM and the TGI [9] was > 24.9 µM. For the same compound, the TGI [7] was > 100 µM.

With Nc1ncnc2c1ncn2C1OC(COS(N)(=O)=O)C(O)C1O (stereo not given) the GI50 [10] was < 0.001 µM, the GI50 [2] was 0.00255 µM and the TGI [2] was 0.0071 µM.

With C1OC1CN1CCN(CC2CO2)CC1 (stereo not given) the TGI [1] was > 100 µM, the TGI [2] was > 100 µM and the TGI [3] was > 100 µM. For the same compound, the TGI [4] was > 100 µM, the TGI [6] was > 100 µM and the TGI [9] was > 100 µM. The TGI [7] was > 100 µM.

With O=C1CC(c2c(-c3ccccc3)[nH]c3ccccc23)C(=O)N1c1ccccc1 (stereo not given) the TGI [1] was > 100 µM, the TGI [2] was > 100 µM and the TGI [3] was > 100 µM. The TGI [4] was > 100 µM, the TGI [6] was > 100 µM and the TGI [9] was > 100 µM.

In the case of CCC/C=C\C=C\C1(NS(=O)(=O)c2ccc(C)cc2)CCC(C(C)(C)C)CC1 (stereo not given), the TGI [1] was 38.6 µM, the TGI [2] was 43.8 µM and the TGI [3] was 30.2 µM. It also gave a TGI [4] of 31.9 µM, a TGI [6] of 43.8 µM and a TGI [9] of 32.3 µM. It also gave a TGI [7] of 40 µM.

NCCCOc1cc2ccccc2cc1C(=O)Nc1ccc(Cl)cc1OC(=O)c1cc2ccccc2cc1OCCCN showed a GI50 [10] of 0.303 µM, a TGI [10] of 0.781 µM and a GI50 [2] of 0.468 µM. The TGI [2] was 1.15 µM, the GI50 [3] was 0.266 µM and the GI50 [4] was 0.19 µM. It also gave a TGI [4] of 0.394 µM, a GI50 [5] of 1.17 µM and a TGI [5] of 2.79 µM. For the same compound, the GI50 [6] was 1 µM, the TGI [6] was 2.47 µM and the GI50 [9] was 0.61 µM. It also gave a TGI [9] of 1.69 µM, a GI50 [7] of 0.922 µM and a TGI [7] of 2.44 µM. For the same compound, the GI50 [8] was 0.282 µM and the TGI [8] was 1.02 µM.
